Source: patent US6187906A, “Methods to improve neural outcome” (Aukland Uniservices Limited, priority 1998, dated 2001)

Key:
[1] = system: dopamine neurons in the pars compacta region of the substantia nigra; experiment: 6-OHDA lesion, count of TH immunopositive neurons in substantia nigra (Experiments 4 and 5); assay type: in vivo, Wistar rats
Description: This experiment was blind with respect to the treatment (with GPE or the vehicle) and with respect to the counting of neurons expressing TH (between sections from animals treated with GPE or vehicle).
The objective of this experiment was to determine the effects of administering GPE on the expression of tyrosine hydroxylase (TH) in the presence or absence of CNS injury. […] Specifically, 9 pairs of adult male Wistar rats (280-320 g) were prepared under 3% halothane/O2 anaesthesia. The oxygen free radical producing neurotoxin 6-hydroxydopamine (6-OHDA) which produces degeneration of dopamine neurones (8 μg/2 μl) was injected into the median forebrain bundle using a 30 gauge needle (coordinates: anterior-posterior +4.7 mm, right +1.6 mm, vertical -8.5 mm). A guide cannula was placed on the dura 7.5 mm anterior from stereotaxic zero and 1.5 mm from the midline on the right. The rats were left to recover at room temperature. […]
The total counts of neurons were compared between the GPE and the vehicle treated group. Data were analysed with paired t-test and presented as mean ±sem.
Experiment 5 was performed using a second set of rats (9 pairs) using the same experimental parameters except that only the immunopositive neurons at 2 levels of the substantia nigra were counted.

[2] = system: TH positive neurons of the SNc; experiment: 6-OHDA lesion of medial forebrain bundle, TH neuron number and staining density in SNc (Experiment 6); assay type: in vivo
Description: A paired experimental design was used and the experimenter was blinded to the treatment groups. Eighteen male Wistar rats (50-60 days old, 280-310 g) were used for this study. 6-hydroxy dopamine (6-OHDA) was prepared as 8 μg in a base of 2 μl 0.9% saline containing 1% ascorbic acid. It was administered into the right medial forebrain bundle (MFB) using coordinates of AP +4.7 mm, R 1.6 mm, V -8 mm under anaesthesia of 3% halothane, 6-OHDA was injected into the right MFB using a Hamilton syringe (100 μl with a 30G needle) controlled by a microdialysis infusion pump at an infusion rate of 0.2 μl/minute. The infusion needle was then slowly withdrawn 5 minutes after infusion. The surgery procedures for the intracerebroventricular administration have been described by Guan et al (1993), Journal of Cerebral Blood Flow and Metab, 13, 609-616. Briefly, a guide cannula (21G, 6 mm) was fixed on the top of the dura with coordinates of AP +7.5 mm, R 1.5 mm immediately after the injection of 6-OHDA. Either GPE (3 μg/15 μl) or its vehicle were infused into the right lateral ventricle 2 hours later at an infusion rate of 2 μl/minute (Guan et al (1993)). Rats were then housed in a holding room with food and water ad libitum for the next 2 weeks.
The rats were then deeply anaesthetized with an overdose of pentobarbital and transcardially perfused with normal saline followed by 10% buffered formalin. The brains were removed from the skull and kept in the same fixative for the next 48 hours. A standard paraffin tissue preparation was used to process the tissue so that it could be used for immunohistochemistry. […]
The number of TH positive neurons on both sides of the SNc were counted using light microscopic examination (20×magnification) at three representative levels (AP +4.2, +3.8 mm and […]) (Paxinos, et al (1982) New York: Academic Press).
The average density from the background was also measured. […] The difference in average density between the background and TH immunostaining was calculated and used for data analysis. […]

IGF-1 receptor = IGF-1 receptor (Homo sapiens, UniProt P08069); details: cited from earlier work
Chain of IGF-1 receptor (P08069 31-736 limits assumed): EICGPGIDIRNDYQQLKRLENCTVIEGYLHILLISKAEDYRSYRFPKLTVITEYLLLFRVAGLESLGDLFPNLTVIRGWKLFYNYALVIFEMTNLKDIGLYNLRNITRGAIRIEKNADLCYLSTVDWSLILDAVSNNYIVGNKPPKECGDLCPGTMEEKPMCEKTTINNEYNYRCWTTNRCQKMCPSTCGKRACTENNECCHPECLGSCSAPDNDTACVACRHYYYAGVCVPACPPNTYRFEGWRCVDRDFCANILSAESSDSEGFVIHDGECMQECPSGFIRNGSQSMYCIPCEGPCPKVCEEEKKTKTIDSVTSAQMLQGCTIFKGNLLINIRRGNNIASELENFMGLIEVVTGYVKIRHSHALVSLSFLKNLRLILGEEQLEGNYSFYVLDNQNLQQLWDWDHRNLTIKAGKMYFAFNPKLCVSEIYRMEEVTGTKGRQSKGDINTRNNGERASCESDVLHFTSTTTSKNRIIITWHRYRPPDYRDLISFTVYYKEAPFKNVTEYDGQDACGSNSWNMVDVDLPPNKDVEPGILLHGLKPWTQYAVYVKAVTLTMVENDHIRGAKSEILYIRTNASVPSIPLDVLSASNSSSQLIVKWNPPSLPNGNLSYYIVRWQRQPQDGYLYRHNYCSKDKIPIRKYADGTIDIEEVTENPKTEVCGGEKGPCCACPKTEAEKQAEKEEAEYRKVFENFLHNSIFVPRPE
Chain of IGF-1 receptor (P08069 741-1367 partner limits assumed): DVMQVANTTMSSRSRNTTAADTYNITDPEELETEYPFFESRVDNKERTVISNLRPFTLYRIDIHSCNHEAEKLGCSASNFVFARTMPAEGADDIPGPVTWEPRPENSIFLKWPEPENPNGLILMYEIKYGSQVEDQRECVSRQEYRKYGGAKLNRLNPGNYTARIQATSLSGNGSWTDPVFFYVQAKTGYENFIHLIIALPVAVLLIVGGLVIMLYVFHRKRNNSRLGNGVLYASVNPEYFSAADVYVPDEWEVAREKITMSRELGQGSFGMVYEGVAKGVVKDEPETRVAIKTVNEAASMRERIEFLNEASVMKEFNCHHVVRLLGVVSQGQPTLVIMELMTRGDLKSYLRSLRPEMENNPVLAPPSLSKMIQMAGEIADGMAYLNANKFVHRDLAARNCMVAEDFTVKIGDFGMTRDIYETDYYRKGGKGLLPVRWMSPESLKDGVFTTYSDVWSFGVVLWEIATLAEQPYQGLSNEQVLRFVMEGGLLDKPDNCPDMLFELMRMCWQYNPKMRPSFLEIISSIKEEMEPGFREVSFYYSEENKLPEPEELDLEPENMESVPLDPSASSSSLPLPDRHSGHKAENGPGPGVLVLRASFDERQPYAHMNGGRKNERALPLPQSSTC

For `NCC(=O)N1CCC[C@H]1C(=O)N[C@@H](CCC(=O)O)C(=O)O` [GPE, gly-pro-glu], the “protection of dopaminergic neurons against 6-OHDA (TH expression in SNc)” value ([1]; Experiments 4 and 5) was “provided protection”, the “number of TH immunopositive dopamine neurons” value ([1]; lesioned (right) side, 3 μg GPE 2 hours after 6-OHDA, 14 days, Experiment 4) was “increased” and the “TH immunoreactivity (density of TH immunostaining, R/L)” value ([2]; caudal levels, 3 μg GPE, vehicle 16±11.2, mean ±SEM) was 99.6±27%. For the same compound, the “neurons remaining in the ipsilateral SNc” value ([2]; caudal levels, GPE 3 μg, vehicle 16.3±11.5) was “over 60.9±13.0%”, the “TH immunoreactivity (density of TH immunostaining)” value ([2]; lesioned (right) side, 3 μg GPE icv 2 hours after 6-OHDA, 2 weeks) was “restored” and the “binding to the IGF-1 receptor” value (IGF-1 receptor) was “does not”.
